Assay results taken from patent US9993436B2, “Porous hollow fiber anti-solvent crystallization-based continuous method of polymer coating on submicron and nanoparticles” (New Jersey Institute of Technology, priority 2014, dated 2018).
≈ marks a conversion by molar mass, not a printed value.

Columns and labels:
physchem = assay: physchem
From the text: Eudragit RL 100 (Mw, 150,000; a copolymer of methyl methacrylate, ethyl acrylate and methacrylic acid ester) from Evonik-Degussa (Parsippany, N.J.) was employed as the coating polymer. Drug particles of Griseofulvin (GF) from Letco (Decatur, Ala.) were used without further treatment. […] Sodium dodecyl sulfate (SDS) was used as a surfactant (Sigma-Aldrich). Deionized water was used as the tube side anti-solvent liquid. The Nylon 6 hollow fibers were obtained from ENKA America Inc. (Asheville, N.C.).

[1] = cited from earlier work
[2] = Particle size distribution by laser diffraction particle size analyzer; format: physicochemical
Experimental: A laser diffraction particle size analyzer (LS230, Beckman Coulter, Brea, Calif.) was used to identify the extent of particle agglomeration. An aqueous micron-size suspension of the particle sample was prepared after 30 s of sonication to break the soft bonding between particles. After that a few drops of the suspension were introduced in the inlet of the instrument for analysis.
Residence time plays an important role in the PHFAC process since precipitation of both the polymer and the drug can be affected by the variation of residence time in the shell side of the module. Residence time can be simply altered by changing the shell-side feed solution flow rate. To identify the influence of the feed solution flow rate on the particle size distribution (PSD) of GF crystals, the solution containing the dissolved drug without any polymer was passed through the PHFAC module at different rates. The particle size distribution will be affected by the extent of supersaturation created and the rate at which supersaturation is created. Both are influenced by the rate at which the anti-solvent is introduced from the tube side to the shell side for a given feed solution flow rate.
Since one of the objectives of the study is to understand the impact of this novel PHFAC coating technique on the synthesized drug particles, the as-received uncoated GF particles and the Eudragit-coated GF particles obtained from the PHFAC were selected for particle size distribution analysis. A suspension of the samples in water was carefully dropped into the inlet of the laser diffraction particle size analyzer. The median size of the uncoated GF sample (11.6 μm) was close to the manufacturer's specification (10 μm). After polymer coating, the median size of the coated drug particles increased to 19.2 μm. One reason for the median size increase is obviously due to the coating which increases the particle size. Another reason is that the coating of GF by the polymer brings in a certain amount of agglomeration. Attachment of neighboring coated drug particles will take place due to the sticking tendency of the polymer-formed liquid bridges.
A laser diffraction particle size analyzer (LS 230, Beckman Coulter, Brea, Calif.) was used to determine the particle size distribution. An aqueous particle suspension of the particle sample was prepared by introducing the dry sample powder into DI water and sonicating it for about 30 seconds to break the soft bonding.

[3] = Dissolution test, USP II paddle method, UV at 296 nm; format: physicochemical; details: up to 50 minutes; 0.27% SDS solution 900 mL, 37° C., paddle 50 rpm; FIG. 8
Experimental: Dissolution tests for the uncoated and coated Griseofulvin particles were determined via a Distek dissolution tester (North Brunswick, N.J.). According to the USP II paddle method, 0.27% of SDS solution with 900 mL volume was added into the vessel as a buffer solution. Temperature of the medium was maintained at 37° C. and a paddle stirring speed of 50 rpm was used. The sample used was equivalent to a dose of 35 mg of GF, and dropped into a dissolution vessel containing the buffer solution. Samples having a volume of 6 mL were taken out at 1, 3, 5, 10, 20, 30, 40, 50 and 80 min and immediately analyzed by UV spectroscopy (52100UV+, Cole-Parmer, Vernon Hills, Ill.) at a wavelength of 296 nm. As a blank benchmark for the test, a 0.27% SDS buffer solution was measured first.
To illustrate the advantages of a coated drug for controlled release, dissolution tests were performed on three samples: as-received drug, uncoated drug, and polymer-coated drug.

[4] = drug crystals from PHFAC module without any polymer in the feed solution, various shell/tube side flow rates

Row | SMILES | solubility in water (physchem) | solubility (physchem; organic solvent or mixture) [mM] | median size, manufacturer's specification [1] [μm] | Median size ([2]; suspension in water, FIG. 4) [μm] | Median size [2, 4] [μm] | d10 [2, 4] [μm] | d90 [2, 4] [μm] | dissolution profile (comparison of curves) [3]
1 | COC1=CC(=O)C[C@@H](C)[C@]12Oc1c(Cl)c(OC)cc(OC)c1C2=O [GF, Griseofulvin] | practically insoluble | 116 (≈ 40.9 mg/mL) | 10 | 11.6 | – | – | – | –
2 | COC1=CC(=O)C[C@@H](C)[C@]12Oc1c(Cl)c(OC)cc(OC)c1C2=O [X0, Griseofulvin] | – | – | – | – | 1.617 | 1.001 | 2.219 | –
3 | COC1=CC(=O)C[C@@H](C)[C@]12Oc1c(Cl)c(OC)cc(OC)c1C2=O [X1, Griseofulvin] | – | – | – | – | 7.333 | 4.977 | 15.29 | –
4 | COC1=CC(=O)C[C@@H](C)[C@]12Oc1c(Cl)c(OC)cc(OC)c1C2=O [X2, Griseofulvin] | – | – | – | – | 11.83 | 2.117 | 30.30 | –
5 | COC1=CC(=O)C[C@@H](C)[C@]12Oc1c(Cl)c(OC)cc(OC)c1C2=O [X3, Griseofulvin] | – | – | – | – | 11.76 | 2.939 | 26.62 | –
6 | COC1=CC(=O)C[C@@H](C)[C@]12Oc1c(Cl)c(OC)cc(OC)c1C2=O [uncoated GF, Griseofulvin] | – | – | – | – | – | – | – | essentially similar dissolution curves
